pKi: −log10 of the molar value. Values joined by “and” are separate entries in the source; they are usually repeats but may differ in a detail not shown here. Equal entries are not always repeated. Marks after values point to notes of the source that are not given here. A value given as a limit tells only on which side of the number the result lay.

The values below come from patent US8445684B2, “Nicotinic acetylcholine receptor ligands and the uses thereof” (PsycoGenics Inc., priority 2008, dated 2013).

Experiment [1] deals with T1, α2β2 nicotinic receptor (Rattus norvegicus, UniProt P12389+P12390).
T1 construct: expressed in transfected cells; host or cells: stably transfected cell lines (e.g., HEK293, COS, CHO, NIH3T3)
T1 sequence (P12390 25-500): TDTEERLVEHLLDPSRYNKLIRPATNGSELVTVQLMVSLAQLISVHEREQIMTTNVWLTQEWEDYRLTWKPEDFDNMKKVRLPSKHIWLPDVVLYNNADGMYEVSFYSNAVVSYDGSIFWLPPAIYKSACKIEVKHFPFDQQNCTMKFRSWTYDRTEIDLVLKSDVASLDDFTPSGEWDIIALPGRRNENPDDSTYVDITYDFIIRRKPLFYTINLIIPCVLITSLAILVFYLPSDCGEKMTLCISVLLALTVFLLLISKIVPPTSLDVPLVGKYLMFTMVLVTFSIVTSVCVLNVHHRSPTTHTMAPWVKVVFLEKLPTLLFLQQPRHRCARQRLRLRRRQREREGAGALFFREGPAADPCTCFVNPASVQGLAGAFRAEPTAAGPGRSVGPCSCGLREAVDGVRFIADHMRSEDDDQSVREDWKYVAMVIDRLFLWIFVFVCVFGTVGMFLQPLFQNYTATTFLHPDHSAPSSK
T1 sequence (P12389 28-511): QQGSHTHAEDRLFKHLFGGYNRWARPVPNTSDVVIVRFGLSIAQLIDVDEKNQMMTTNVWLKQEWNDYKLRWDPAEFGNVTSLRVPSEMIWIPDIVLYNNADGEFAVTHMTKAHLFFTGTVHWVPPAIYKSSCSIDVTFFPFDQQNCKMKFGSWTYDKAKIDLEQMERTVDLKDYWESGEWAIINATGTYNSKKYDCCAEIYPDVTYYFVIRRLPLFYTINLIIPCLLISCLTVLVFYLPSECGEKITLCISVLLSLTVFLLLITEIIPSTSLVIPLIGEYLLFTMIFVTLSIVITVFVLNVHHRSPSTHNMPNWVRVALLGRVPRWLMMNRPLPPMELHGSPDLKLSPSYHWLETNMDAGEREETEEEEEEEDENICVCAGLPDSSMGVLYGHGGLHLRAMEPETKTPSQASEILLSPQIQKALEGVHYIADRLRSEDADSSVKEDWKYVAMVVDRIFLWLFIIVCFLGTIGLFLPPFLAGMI
Kind of experiment: biochemical. The experiment is classed as binding. The procedure: (§1) All binding assays were performed according to procedures set forth in the University of North Carolina at Chapel Hill National Institute of Mental Health Psychoactive Drug Screening Program Assay Protocol Book (pp. 50-54; PI: Bryan L. Roth MD, PhD).
(§2) Nicotinic receptors: α2β2, α2β4, α3β2, α3β4, α4β2, α4β4, endogenous α4β2. Assay buffer: 50 mM Tris-HCl, pH 7.4. Membrane fraction source: Stably transfected cell lines (e.g., HEK293, COS, CHO, NIH3T3) (α2β2, α2β4, α3β2, α3β4, α4β2, α4β4) or rat forebrain (α4β2).
(§3) Aliquots (50 μl) of radioligand were dispensed into the wells of a 96-well plate containing 100 μl of assay buffer. Then, duplicate 50-μl aliquots of the test and reference compound dilutions were added.
(§4) Finally, crude membrane fractions of cells expressing recombinant target (prepared from 10-cm plates by harvesting PBS-rinsed monolayers, resuspending and lysing in chilled, hypotonic 50 mM Tris-HCl, pH 7.4, centrifuging at 20,000×g, decanting the supernatant and storing at −80° C.; typically, one 10-cm plate provides sufficient material for 24 wells) were resuspended in 3 ml of chilled assay buffer and homogenized by several passages through a 26 gauge needle, then 50 μl were dispensed into each well.
(§5) The 250-μl reactions were incubated at room temperature and shielded from light (to prevent photolysis of light-sensitive ligands) for 4 hours, then harvested by rapid filtration onto Whatman GF/B glass fiber filters pre-soaked with 0.5% polyethyleneimine using a 96-well Brandel harvester. Four rapid 500-μl washes were performed with chilled Standard Binding Buffer to reduce non-specific binding. Filters were placed in 6-ml scintillation tubes and allowed to dry overnight. The next day, 4 ml of EcoScint scintillation cocktail (National Diagnostics) were added to each tube. The tubes were capped, labeled, and counted by liquid scintillation counting.
(§6) Raw data (dpm) representing total radioligand binding (i.e., specific+non-specific binding) were plotted as a function of the logarithm of the molar concentration of the competitor (i.e., test or reference compound).

Experiment [2] addresses T2, α4β2 nicotinic receptor (Rattus norvegicus, UniProt P09483+P12390).
T2 construct: expressed in transfected cells; host or cells: stably transfected cell lines (e.g., HEK293, COS, CHO, NIH3T3)
Kind of experiment: biochemical. In kind it is binding. The procedure: as §1, §2, §3, §4, §5, §6

Experiment [3] concerns the target T3, α4β4 nicotinic receptor (Rattus norvegicus, UniProt P09483+P12392).
T3 construct: expressed in transfected cells; host or cells: stably transfected cell lines (e.g., HEK293, COS, CHO, NIH3T3)
The experiment is described as follows: biochemical. The experiment is classed as binding. As for the experimental part: as §1, §2, §3, §4, §5, §6

The target in experiment [4] is T4, α3β2 nicotinic receptor (Rattus norvegicus, UniProt P04757+P12390).
T4 construct: expressed in transfected cells; host or cells: stably transfected cell lines (e.g., HEK293, COS, CHO, NIH3T3)
T4 sequence (P12390 25-500): as the sequence (P12390 25-500) above
T4 sequence (P04757 26-499): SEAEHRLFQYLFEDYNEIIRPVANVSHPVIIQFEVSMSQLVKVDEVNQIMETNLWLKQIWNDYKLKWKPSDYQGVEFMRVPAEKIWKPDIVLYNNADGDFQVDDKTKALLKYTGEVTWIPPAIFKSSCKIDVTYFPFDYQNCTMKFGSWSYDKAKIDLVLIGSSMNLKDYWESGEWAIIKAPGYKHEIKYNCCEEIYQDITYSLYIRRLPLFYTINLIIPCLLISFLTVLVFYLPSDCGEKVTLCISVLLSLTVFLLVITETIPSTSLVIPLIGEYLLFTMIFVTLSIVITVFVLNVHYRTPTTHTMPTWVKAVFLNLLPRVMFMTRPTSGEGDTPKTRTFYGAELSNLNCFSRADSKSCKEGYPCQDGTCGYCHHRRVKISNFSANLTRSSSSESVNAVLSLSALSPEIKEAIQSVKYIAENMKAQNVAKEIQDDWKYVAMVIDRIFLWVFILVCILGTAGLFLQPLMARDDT
Kind of experiment: biochemical. The experiment is classed as binding. The procedure: as §1, §2, §3, §4, §5, §6

Experiment [5] deals with T5, α4β2* (endogenous α4β2, rat forebrain) (Rattus norvegicus, UniProt P09483+P12390).
T5 construct: from tissue; host or cells: rat forebrain
T5 sequence (P09483 31-630): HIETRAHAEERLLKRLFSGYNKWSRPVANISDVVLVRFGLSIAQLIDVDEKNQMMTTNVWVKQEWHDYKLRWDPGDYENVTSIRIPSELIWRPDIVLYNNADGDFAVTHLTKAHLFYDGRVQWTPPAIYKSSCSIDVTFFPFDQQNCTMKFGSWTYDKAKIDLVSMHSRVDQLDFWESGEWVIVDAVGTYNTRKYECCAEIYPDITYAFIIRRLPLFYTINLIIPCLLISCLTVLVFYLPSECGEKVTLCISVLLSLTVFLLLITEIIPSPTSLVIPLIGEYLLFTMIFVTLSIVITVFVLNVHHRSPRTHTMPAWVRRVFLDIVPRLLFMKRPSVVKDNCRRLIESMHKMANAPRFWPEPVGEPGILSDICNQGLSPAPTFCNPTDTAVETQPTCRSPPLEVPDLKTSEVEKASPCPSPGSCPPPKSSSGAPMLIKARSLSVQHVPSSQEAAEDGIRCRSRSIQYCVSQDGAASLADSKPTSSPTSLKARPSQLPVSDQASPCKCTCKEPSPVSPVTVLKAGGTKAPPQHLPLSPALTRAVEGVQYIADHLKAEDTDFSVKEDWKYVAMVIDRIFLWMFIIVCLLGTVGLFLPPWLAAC
T5 sequence (P12390 25-500): as the sequence (P12390 25-500) above
The experiment is described as follows: biochemical. The experiment is classed as binding. The procedure:
as §1, §2, §3, §4, §5, §6

Experiment [6] has as its target T6, α2β4 nicotinic receptor (Rattus norvegicus, UniProt P12389+P12392).
T6 construct: expressed in transfected cells; host or cells: stably transfected cell lines (e.g., HEK293, COS, CHO, NIH3T3)
Kind of experiment: biochemical. In kind it is binding. As for the experimental part: as §1, §2, §3, §4, §5, §6

Experiment [7] deals with male Balb/cJ mice. The experiment is described as follows: Forced swim test in mice. In kind it is in vivo. As for the experimental part: Subjects. The subjects were male Balb/cJ mice obtained from Jackson Laboratory, Bar Harbor, Me. Mice were housed 4 per cage under controlled conditions of temperature, relative humidity and light-dark cycle with free access to food and water.
Procedures. […] Mice were individually placed into clear glass cylinders (i.e., 15 cm tall×10 cm wide, 1 L beakers) containing 23±1° C. water 12 cm deep (approximately 800 mL). The time the animal spent immobile was recorded over a 6 min trial. Immobility was described as the postural position of floating in the water.
Drugs. […] The mice were injected intraperitoneally (i.p.) 30 minutes before the start of the test. In another set of experiments, the test compounds were administered orally (p.o.) 30 minutes before the start of the test.
Statistics. The length of time spent floating was analyzed by Analysis of Variance (ANOVA) with dose of drug as the between-subject factor and time spent immobile across the 6 min test as the dependent variable. Post-hoc comparisons between the treatment groups and control group were made using Fisher's PLSD test. A significance level of 5% was used throughout.

For experiment [8], the target named is T7, α3β4 nicotinic receptor (Rattus norvegicus, UniProt P04757+P12392).
T7 construct: expressed in transfected cells; host or cells: stably transfected cell lines (e.g., HEK293, COS, CHO, NIH3T3)
T7 sequence (P04757 26-499): as the sequence (P04757 26-499) above
T7 sequence (P12392 21-495): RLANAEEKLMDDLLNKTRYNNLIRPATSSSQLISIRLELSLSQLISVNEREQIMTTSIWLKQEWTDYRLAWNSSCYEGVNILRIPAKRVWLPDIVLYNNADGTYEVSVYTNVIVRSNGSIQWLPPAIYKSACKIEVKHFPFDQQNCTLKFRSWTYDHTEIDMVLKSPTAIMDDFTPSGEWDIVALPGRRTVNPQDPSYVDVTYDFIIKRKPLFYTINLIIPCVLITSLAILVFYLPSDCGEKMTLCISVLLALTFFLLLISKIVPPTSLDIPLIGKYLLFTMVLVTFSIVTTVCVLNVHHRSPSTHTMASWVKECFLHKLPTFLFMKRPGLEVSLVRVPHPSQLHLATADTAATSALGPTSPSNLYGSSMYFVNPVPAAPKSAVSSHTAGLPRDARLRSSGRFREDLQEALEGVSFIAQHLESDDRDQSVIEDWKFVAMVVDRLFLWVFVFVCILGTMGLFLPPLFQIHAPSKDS
Kind of experiment: biochemical. In kind it is binding. The procedure:
as §1, §2, §3, §4, §5, §6

T6 sequence (P12392 21-495): as above
T6 sequence (P12389 28-511): as the sequence (P12389 28-511) above
T2 sequence (P09483 31-630): as the sequence (P09483 31-630) above
T2 sequence (P12390 25-500): as the sequence (P12390 25-500) above
T3 sequence (P09483 31-630): as the sequence (P09483 31-630) above
T3 sequence (P12392 21-495): as the sequence (P12392 21-495) above

For the compound `OCCCC[C@H]1C[C@@H]1c1cncc(OC[C@@H]2CCN2)c1`, the pKi in experiment [1] was 9.22; in experiment [2], 9.30; in experiment [3], 6.62; in experiment [4], 8.19; in experiment [5] it was 8.85; in experiment [6], 6.92.

`CN[C@H]1CC[C@@H](c2ccc(Cl)c(Cl)c2)c2ccccc21` [Sertraline, sertraline, reference compound]: the “Average Immobility Time” value in experiment [7] (Table 2, 20 mg/kg i.p., 30 min before test, 6 min trial, vehicle 126.3, ** = significantly different from vehicle) is on record as 11.9** seconds.

For the compound `OCCCCC#Cc1cncc(OC[C@@H]2CCN2)c1` [AMOP-H-OH, reference compound], in experiment [7] (mouse, in vivo, ip), the “effect in the forced swim test as indicated by a reduction in immobility time” value (“effect … by a reduction in immobility time” for short) is reported as “positive effects”.

In the case of `FCC[C@H]1C[C@@H]1c1cncc(OC[C@@H]2CCN2)c1`, the pKi in experiment [1] is 8.19; in experiment [2], 9.00; in experiment [3], 5.89; in experiment [4], 7.47; in experiment [5], 7.96; in experiment [8] it was less than 5.00. For the same compound, the pKi in experiment [6] was 6.18.

Turning to `OCC[C@H]1C[C@@H]1c1cncc(OC[C@@H]2CCN2)c1` [Example 2, 2-[(1R,2S)-2-[5-[(2(S)-Azetidinyl)methoxy]-3-pyridyl]cyclopropyl]ethanol], in experiment [7] (mouse, in vivo, ip), the “effect … by a reduction in immobility time” value is on record as “positive effects”.

Regarding `OCC[C@H]1C[C@@H]1c1cncc(OC[C@@H]2CCN2)c1` [drawing 715], the pKi is 9.05 in experiment [1]; 9.52 in experiment [2]; 8.29 in experiment [4]; 8.92 in experiment [5]; 6.19 in experiment [8]; 7.21 in experiment [6].

As for `OCCCc1cccc(-c2cncc(OC[C@@H]3CCN3)c2)c1` [Example 15c, 3-[3-[5-[(2(S)-Azetidinyl)methoxy]-3-pyridyl]phenyl]-1-propanol], in experiment [7] (mouse, in vivo), the “reduction in immobility time compared to vehicle” value stood at 24.5 s. In addition, the “effect … by a reduction in immobility time” value in experiment [7] (mouse, in vivo, ip) was “positive effects”. Besides, the “Average Immobility Time” value was 110.6 s in experiment [7] (mouse, in vivo, ip, 5 mg/kg); 105.1** seconds and 85.3** seconds in experiment [7] (mouse, in vivo, ip, 10 mg/kg); 49.7** seconds in experiment [7] (mouse, in vivo, ip, 20 mg/kg).
